We go through 22 compounds from patent US20250129078A1, “ERBB2 INHIBITORS” (Cogent Biosciences, Inc., priority 2023, published 2025).

One test addresses EGFR WT (Homo sapiens (Human), UniProt P00533). The test is described as follows: ErbB enzyme assay (CisBio HTRF-KinEASE-TK), EGFR WT. Format: biochemical. Particulars: ATP at Km (25 μM), 1 h incubation. The procedure, abridged: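 Three-fold DMSO serial dilutions were added to kinase reactions and incubated 1 h at room temperature. Quench used 62.5 nM Sa-XL665 plus 0.25×TK-Ab-Cryptate in detection buffer, followed by another 1 h. Substrate phosphorylation was then measured by dual-wavelength HTRF.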

A further test deals with ErbB2 V777L (Homo sapiens (Human), UniProt P04626, V777L). The test is described as follows: ErbB enzyme assay (CisBio HTRF-KinEASE-TK), ErbB2 V777L. The test is classed as biochemical. Put shortly:
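HTRF KinEASE-TK tyrosine-kinase read-out of substrate phosphorylation after a final 1 h at ambient temperature, from the 655/620 nm emission ratio.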

Molecules are shown by their SMILES.

Sequence of ErbB2 V777L (P04626 23-1255 V777L): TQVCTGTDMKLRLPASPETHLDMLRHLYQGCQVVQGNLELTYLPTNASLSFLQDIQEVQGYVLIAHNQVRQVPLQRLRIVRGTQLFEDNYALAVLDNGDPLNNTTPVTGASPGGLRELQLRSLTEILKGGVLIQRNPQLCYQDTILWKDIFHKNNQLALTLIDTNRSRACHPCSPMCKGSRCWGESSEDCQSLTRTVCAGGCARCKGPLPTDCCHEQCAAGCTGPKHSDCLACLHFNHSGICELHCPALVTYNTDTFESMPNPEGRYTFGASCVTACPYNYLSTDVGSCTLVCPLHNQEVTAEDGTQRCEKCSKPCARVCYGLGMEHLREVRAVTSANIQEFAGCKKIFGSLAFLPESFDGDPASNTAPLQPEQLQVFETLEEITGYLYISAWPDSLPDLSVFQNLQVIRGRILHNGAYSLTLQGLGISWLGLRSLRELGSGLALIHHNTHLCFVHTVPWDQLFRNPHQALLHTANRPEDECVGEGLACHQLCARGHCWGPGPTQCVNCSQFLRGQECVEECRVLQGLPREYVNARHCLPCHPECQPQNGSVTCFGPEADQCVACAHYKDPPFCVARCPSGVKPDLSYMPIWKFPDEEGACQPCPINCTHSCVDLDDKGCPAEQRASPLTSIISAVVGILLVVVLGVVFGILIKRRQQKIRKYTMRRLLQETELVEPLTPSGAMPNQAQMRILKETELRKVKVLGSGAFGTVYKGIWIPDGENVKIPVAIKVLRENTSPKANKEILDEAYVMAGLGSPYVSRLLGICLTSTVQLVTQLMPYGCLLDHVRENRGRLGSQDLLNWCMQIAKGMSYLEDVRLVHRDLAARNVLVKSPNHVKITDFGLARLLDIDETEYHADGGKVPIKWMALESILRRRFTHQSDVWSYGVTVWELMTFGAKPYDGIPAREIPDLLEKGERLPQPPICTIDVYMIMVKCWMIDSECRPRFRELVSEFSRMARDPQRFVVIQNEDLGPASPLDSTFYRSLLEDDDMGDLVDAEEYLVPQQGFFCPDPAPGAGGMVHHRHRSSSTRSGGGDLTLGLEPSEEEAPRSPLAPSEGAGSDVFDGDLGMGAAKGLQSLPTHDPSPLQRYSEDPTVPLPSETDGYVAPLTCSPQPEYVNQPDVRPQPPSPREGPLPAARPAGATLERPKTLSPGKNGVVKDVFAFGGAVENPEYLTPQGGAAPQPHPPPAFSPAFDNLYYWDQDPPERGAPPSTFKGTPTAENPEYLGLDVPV
Sequence of EGFR WT (P00533 25-1210): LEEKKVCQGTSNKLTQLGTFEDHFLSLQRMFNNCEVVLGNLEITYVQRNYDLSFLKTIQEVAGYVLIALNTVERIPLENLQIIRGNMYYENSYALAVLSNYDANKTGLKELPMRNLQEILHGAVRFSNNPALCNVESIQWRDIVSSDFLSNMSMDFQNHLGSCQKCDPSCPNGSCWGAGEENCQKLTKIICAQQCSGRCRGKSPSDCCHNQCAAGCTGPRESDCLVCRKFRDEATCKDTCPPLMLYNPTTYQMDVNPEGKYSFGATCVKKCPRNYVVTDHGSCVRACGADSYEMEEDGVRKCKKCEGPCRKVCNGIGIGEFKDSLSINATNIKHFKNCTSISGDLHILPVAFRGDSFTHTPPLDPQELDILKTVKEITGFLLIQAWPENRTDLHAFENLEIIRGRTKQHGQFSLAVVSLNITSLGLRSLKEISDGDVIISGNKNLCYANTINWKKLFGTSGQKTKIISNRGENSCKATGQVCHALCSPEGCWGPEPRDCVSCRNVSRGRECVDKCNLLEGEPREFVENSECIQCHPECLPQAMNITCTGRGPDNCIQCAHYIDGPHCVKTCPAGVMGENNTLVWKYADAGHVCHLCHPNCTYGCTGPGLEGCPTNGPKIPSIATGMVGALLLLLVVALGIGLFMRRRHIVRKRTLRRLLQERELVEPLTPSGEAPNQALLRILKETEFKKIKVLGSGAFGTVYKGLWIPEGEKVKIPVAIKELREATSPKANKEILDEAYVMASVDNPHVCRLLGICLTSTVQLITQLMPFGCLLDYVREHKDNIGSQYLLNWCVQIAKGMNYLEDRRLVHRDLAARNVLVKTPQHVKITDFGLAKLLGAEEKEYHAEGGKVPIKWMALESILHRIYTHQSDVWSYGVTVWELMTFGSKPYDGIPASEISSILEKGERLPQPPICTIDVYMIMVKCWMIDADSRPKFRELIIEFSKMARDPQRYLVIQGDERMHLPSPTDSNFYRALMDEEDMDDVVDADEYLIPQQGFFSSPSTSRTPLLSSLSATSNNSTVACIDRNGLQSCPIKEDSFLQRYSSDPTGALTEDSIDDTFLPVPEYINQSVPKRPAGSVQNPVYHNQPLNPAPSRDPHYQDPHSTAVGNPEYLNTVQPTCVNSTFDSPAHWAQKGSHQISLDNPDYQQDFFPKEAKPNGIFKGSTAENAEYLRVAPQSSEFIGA

On to `C=CC(=O)NC1CC2(C1)CN(c1ncc3ncnc(Nc4ccc(Oc5ccc6c(c5)nnn6C)c(C)c4)c3n1)C2` [Compound 225, N-(2-(8-((3-methyl-4-((1-methyl-1H-benzo[d][1,2,3]triazol-5-yl)oxy)phenyl)amino)pyrimido[5,4-d]pyrimidin-2-yl)-2-azaspiro[3.3]heptan-6-yl)acrylamide], for which the figures for the IC50 against EGFR WT and against ErbB2 V777L were 500 to 1000 nM and 100 to 500 nM, respectively.
The like results for `C=CC(=O)NC1CCC(c2ccc3ncnc(Nc4ccc(Oc5ccc6c(c5)nnn6C)c(C)c4)c3n2)CC1` (centres unmarked) [Compound 400, N-(4-(4-((3-methyl-4-((1-methyl-1H-benzo[d][1,2,3]triazol-5-yl)oxy)phenyl)amino)pyrido[3,2-d]pyrimidin-6-yl)cyclohexyl)acrylamide] were, in that order, 50 to 100 nM and 100 to 500 nM.
The like results for `C=CC(=O)N1CCN(c2ccc3ncnc(Nc4ccc(Oc5ccc6c(c5)nnn6C)c(C)c4)c3n2)C[C@H]1C1CC1` [Compound 335, (R)-1-(2-cyclopropyl-4-(4-((3-methyl-4-((1-methyl-1H-benzo[d][1,2,3]triazol-5-yl)oxy)phenyl)amino)pyrido[3,2-d]pyrimidin-6-yl)piperazin-1-yl)prop-2-en-1-one] were, in that order, 100 to 500 nM and 50 to 100 nM.
The like results for `C=CC(=O)N1CCN(c2ncc3ncnc(Nc4ccc(Oc5cc6nnn(C)c6c(F)c5C)c(C)c4)c3n2)C[C@H]1C` [Compound 174, (R)-1-(4-(8-((4-((7-fluoro-1,6-dimethyl-1H-benzo[d][1,2,3]triazol-5-yl)oxy)-3-methylphenyl)amino)pyrimido[5,4-d]pyrimidin-2-yl)-2-methylpiperazin-1-yl)prop-2-en-1-one] were, in that order, no less than 1000 nM and 100 to 500 nM.
With `C=CC(=O)N1CCN(c2ccc3ncnc(Nc4ccc(Oc5ccc6c(c5)nnn6C(F)F)c(C)c4F)c3n2)C[C@H]1C` [Compound 323, (R)-1-(4-(4-((4-((1-(difluoromethyl)-1H-benzo[d][1,2,3]triazol-5-yl)oxy)-2-fluoro-3-methylphenyl)amino)pyrido[3,2-d]pyrimidin-6-yl)-2-methylpiperazin-1-yl)prop-2-en-1-one], the figures for the half-maximal inhibitory concentration (IC50) on EGFR WT and at ErbB2 V777L were 100 to 500 nM and 500 to 1000 nM, respectively.
The like results for `Cc1cc(Nc2ncnc3cnc(N4CCN(C(=O)/C=C/CO)CC4)nc23)ccc1Oc1ccc2c(c1)nnn2C` [Compound 57, (E)-4-hydroxy-1-(4-(8-((3-methyl-4-((1-methyl-1H-benzo[d][1,2,3]triazol-5-yl)oxy)phenyl)amino)pyrimido [5,4-d]pyrimidin-2-yl)piperazin-1-yl)but-2-en-1-one] were, in that order, 100 to 500 nM and 100 to 500 nM.
The like results for `C=CC(=O)N[C@H]1CCCCN(c2ncc3ncnc(Nc4ccc(Oc5ccc6c(c5)nnn6C)c(C)c4F)c3n2)C1` [Compound 173, (S)-N-(1-(8-((2-fluoro-3-methyl-4-((1-methyl-1H-benzo[d][1,2,3]triazol-5-yl)oxy)phenyl)amino)pyrimido[5,4-d]pyrimidin-2-yl)azepan-3-yl)acrylamide] were, in that order, 100 to 500 nM and 50 to 100 nM.
The like results for `C=CC(=O)NC1CCN(c2ncc3ncnc(Nc4ccc(Oc5ccc6c(c5)nnn6C)c(C)c4)c3n2)CC1` [Compound 123, N-(1-(8-((3-methyl-4-((1-methyl-1H-benzo[d][1,2,3]triazol-5-yl)oxy)phenyl)amino)pyrimido[5,4-d]pyrimidin-2-yl)piperidin-4-yl)acrylamide] were, in that order, 100 to 500 nM and 100 to 500 nM.
`C=CC(=O)N(C)C1CN(c2ncc3ncnc(Nc4ccc(Oc5ccc6c(c5)nnn6C)c(C)c4)c3n2)C1` [Compound 26, N-methyl-N-(1-(8-((3-methyl-4-((1-methyl-1H-benzo[d][1,2,3]triazol-5-yl)oxy)phenyl)amino)pyrimido[5,4-d]pyrimidin-2-yl)azetidin-3-yl)acrylamide]: the IC50 on EGFR WT and against ErbB2 V777L was 100 to 500 nM in each case.
As for `C=CC(=O)N1CCN(c2ncc3ncnc(Nc4ccc(Oc5ccc6c(c5)nnn6C)c(C)c4F)c3n2)CC[C@@H]1C` [Compound 169, (S)-1-(4-(8-((2-fluoro-3-methyl-4-((1-methyl-1H-benzo[d][1,2,3]triazol-5-yl)oxy)phenyl)amino)pyrimido[5,4-d]pyrimidin-2-y1)-7-methyl-1,4-diazepan-1-yl)prop-2-en-1-one], the results for the IC50 against EGFR WT and at ErbB2 V777L were 500 to 1000 nM and 100 to 500 nM, respectively.
Take `C=CC(=O)N1CCCN(c2ccc3ncnc(Nc4ccc(Oc5ccc6c(c5)nnn6C)c(C)c4)c3n2)C[C@@H]1C` [Compound 284, (S)-1-(2-methyl-4-(4-((3-methyl-4-((1-methyl-1H-benzo[d][1,2,3]triazol-5-yl)oxy)phenyl)amino)pyrido[3,2-d]pyrimidin-6-yl)-1,4-diazepan-1-yl)prop-2-en-1-one]: the concentration for half-maximal inhibition (IC50) against EGFR WT was no less than 1000 nM; against ErbB2 V777L, 500 to 1000 nM.
For `C=CC(=O)N1C2C=C(c3ccc4ncnc(Nc5ccc(Oc6ccc7c(c6)nnn7C)c(C)c5)c4n3)CC1CCC2` (centres unmarked) [Compound 405, 1-(3-(4-((3-methyl-4-((1-methyl-1H-benzo[d][1,2,3]triazol-5-yl)oxy)phenyl)amino)pyrido[3,2-d]pyrimidin-6-yl)-9-azabicyclo[3.3.1]non-2-en-9-yl)prop-2-en-1-one] the same measures were 500 to 1000 nM and 100 to 500 nM.
For `C=CC(=O)N1CCN(c2ncc3ncnc(Nc4ccc(Oc5ccc6c(c5)nnn6C)c(C)c4F)c3n2)C[C@H]1C` [Compound 156, (R)-1-(4-(8-((2-fluoro-3-methyl-4-((1-methyl-1H-benzo[d][1,2,3]triazol-5-yl)oxy)phenyl)amino)pyrimido[5,4-d]pyrimidin-2-y1)-2-methylpiperazin-1-yl)prop-2-en-1-one], the 50% inhibitory concentration (IC50) on EGFR WT and against ErbB2 V777L was 100 to 500 nM each time.
Consider `C=CC(=O)N(C)CCOc1ncc2ncnc(Nc3ccc(Oc4ccc5c(c4)ncn5C)c(C)c3)c2n1` [Compound 384, N-methyl-N-(2-((8-((3-methyl-4-((1-methyl-1H-benzo[d]imidazol-5-yl)oxy)phenyl)amino)pyrimido[5,4-d]pyrimidin-2-yl)oxy)ethyl)acrylamide], for which the IC50 against EGFR WT is no less than 1000 nM; at ErbB2 V777L, 50 to 100 nM.
The like results for `C=CC(=O)N1CCN(c2ncc3ncnc(Nc4ccc(Oc5ccc6c(c5)nnn6C)c(C)c4)c3n2)C[C@H]1C` [Compound 1, (R)-1-(2-methyl-4-(8-((3-methyl-4-((1-methyl-1H-benzo[d][1,2,3]triazol-5-yl)oxy)phenyl)amino)pyrimido[5,4-d]pyrimidin-2-yl)piperazin-1-yl)prop-2-en-1-one] were, in that order, 100 to 500 nM and 50 to 100 nM.
Turning to `C=CC(=O)N1CCN(c2ncc3ncnc(Nc4ccc(Oc5ccc6c(c5)nnn6C)c(C)c4)c3n2)CC[C@@H]1C` [Compound 228, (S)-1-(7-methyl-4-(8-((3-methyl-4-((1-methyl-1H-benzo[d][1,2,3]triazol-5-yl)oxy)phenyl)amino)pyrimido[5,4-d]pyrimidin-2-yl)-1,4-diazepan-1-yl)prop-2-en-1-one], the half-maximal inhibitory concentration (IC50) on EGFR WT fell in the range of 500 to 1000 nM; against ErbB2 V777L, 100 to 500 nM.
The like results for `C=CC(=O)N1CCN(c2ccc3ncnc(Nc4ccc(Oc5ccc6c(c5)nnn6C)c(C)c4)c3n2)C[C@@H]1C1CC1` [Compound 250, (S)-1-(2-cyclopropyl-4-(4-((3-methyl-4-((1-methyl-1H-benzo[d][1,2,3]triazol-5-yl)oxy)phenyl)amino)pyrido[3,2-d]pyrimidin-6-yl)piperazin-1-yl)prop-2-en-1-one] were, in that order, 500 to 1000 nM and 100 to 500 nM.
The like results for `C=CC(=O)N1CCCN(c2ncc3ncnc(Nc4ccc(Oc5ccc6c(c5)ncn6C)c(C)c4)c3n2)C[C@H]1C` [Compound 143, (R)-1-(2-methyl-4-(8-((3-methyl-4-((1-methyl-1H-benzo[d]imidazol-5-yl)oxy)phenyl)amino)pyrimido[5,4-d]pyrimidin-2-yl)-1,4-diazepan-1-yl)prop-2-en-1-one] were, in that order, no less than 1000 nM and 100 to 500 nM.
For `C=CC(=O)N1CCCN(c2ccc3ncnc(Nc4ccc(Oc5ccn6ncnc6c5)c(C)c4)c3n2)C[C@@H]1C` [Compound 355, (S)-1-(4-(4-((4-([1,2,4]triazolo[1,5-a]pyridin-7-yloxy)-3-methylphenyl)amino)pyrido[3,2-d]pyrimidin-6-yl)-2-methyl-1,4-diazepan-1-yl)prop-2-en-1-one] the same measures were no less than 1000 nM and 100 to 500 nM.
As to `C=CC(=O)N1CC2(CC(N(C)c3ncc4ncnc(Nc5ccc(Oc6ccc7c(c6)nnn7C)c(C)c5)c4n3)C2)C1` [Compound 124, 1-(6-(methyl(8-((3-methyl-4-((1-methyl-1H-benzo[d][1,2,3]triazol-5-yl)oxy)phenyl)amino)pyrimido [5,4-d]pyrimidin-2-yl)amino)-2-azaspiro[3.3]heptan-2-yl)prop-2-en-1-one], the IC50 was in the range of 100 to 500 nM against EGFR WT and 50 to 100 nM on ErbB2 V777L.
The like results for `C=C(F)C(=O)N1CCN(c2ccc3ncnc(Nc4ccc(Oc5ccc6c(c5)nnn6C)c(C)c4)c3n2)CC1` [Compound 245, 2-fluoro-1-(4-(4-((3-methyl-4-((1-methyl-1H-benzo[d][1,2,3]triazol-5-yl)oxy)phenyl)amino)pyrido[3,2-d]pyrimidin-6-yl)piperazin-1-yl)prop-2-en-1-one] were, in that order, 500 to 1000 nM and 100 to 500 nM.
The like results for `C=CC(=O)N(C)CCN(C)c1ccc2ncnc(Nc3ccc(Oc4ccc5c(c4)nnn5C)c(C)c3)c2n1` [Compound 76, N-methyl-N-(2-(methyl(4-((3-methyl-4-((1-methyl-1H-benzo[d][1,2,3]triazol-5-yl)oxy)phenyl)amino)pyrido[3,2-d]pyrimidin-6-yl)amino)ethyl)acrylamide] were, in that order, 500 to 1000 nM and 100 to 500 nM.
